Series [1] addresses T1, HNE (human neutrophil elastase) (Homo sapiens, UniProt P08246).
T1 construct: purchased Calbiochem
T1 sequence (P08246 30-267): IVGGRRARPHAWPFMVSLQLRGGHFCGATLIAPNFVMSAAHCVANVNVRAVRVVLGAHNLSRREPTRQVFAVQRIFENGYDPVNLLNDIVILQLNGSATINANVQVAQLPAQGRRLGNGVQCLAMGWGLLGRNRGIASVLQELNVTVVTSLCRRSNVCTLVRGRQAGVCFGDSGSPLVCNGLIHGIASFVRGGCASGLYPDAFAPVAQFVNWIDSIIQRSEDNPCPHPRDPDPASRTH
As to the kind of experiment: HNE inhibition assay (fluorogenic substrate cleavage). It counts as biochemical. The conditions noted are these: mean ± SD of three independent experiments; read-out: IC50 (HNE inhibitory activity). On the procedure:
Compounds were dissolved in 100% DMSO at 5 mM stock concentrations. […] HNE inhibition assays were performed in black flat-bottom 96-well microtiter plates. Briefly, a solution containing 200 mM Tris–HCl, pH 7.5, 0.01% bovine serum albumin, 0.05% Tween®-20, and 20 mU/mL of HNE (Calbiochem) was added to wells containing different concentrations of each compound. The reaction was initiated by addition of 25 μM elastase substrate (N-methylsuccinyl-Ala-Ala-Pro-Val-7-amino-4-methylcoumarin, Calbiochem) in a final reaction volume of 100 μL/well. Kinetic measurements were obtained every 30 s for 10 min at 25°C using a Fluoroskan Ascent FL fluorescence microplate reader (Thermo Electron, MA) with excitation and emission wavelengths of 355 and 460 nm, respectively. For all compounds tested, the concentration of inhibitor that caused 50% inhibition of the enzymatic reaction (IC50) was calculated by plotting % inhibition vs. logarithm of inhibitor concentration (at least six points).

The target of series [2] is T1, HNE (human neutrophil elastase). As to the kind of experiment: Persistence of HNE inhibition over extended period of time (16 h). It counts as biochemical. Particulars: monitored during 16 h in the presence of 10 μM inhibitor. From the text:
The relatively high enzymatic stability of HNE allowed us to evaluate reversibility of the enzyme inhibition over time.

A short description of series [3]: Spontaneous hydrolysis (chemical stability) in aqueous phosphate buffer. It counts as physicochemical. Particulars: phosphate buffer, pH 7.3, 0.05 M phosphate buffer, pH 7.3, 25°C; read-out: t1/2 for the spontaneous hydrolysis (converted). On the procedure: Spontaneous hydrolysis of selected derivatives was evaluated at 25°C in 0.05 M phosphate buffer, pH 7.3. Kinetics of compound hydrolysis was monitored by measuring changes in absorbance spectra over time using a SpectraMax ABS Plus microplate spectrophotometer (Molecular Devices, Sunnyvale, CA). Absorbance (At) at the characteristic absorption maxima of each compound was monitored over time until no further absorbance decreases occurred (A∞). Using these measurements, we created semilogarithmic plots of log(At-A∞) vs. time, and k′ values were determined from the slopes of these plots. Half-conversion times were calculated using t1/2 = 0.693/k′.
Spontaneous hydrolysis rates of the inhibitors were measured in phosphate buffer at pH 7.3 and 25°C.

Each structure is given as a SMILES string.

Turning to `CC(C)(C)C(=O)Oc1ccc(S(=O)(=O)n2ncc(=O)c3ccccc32)cc1` [Compound 9a, 4-[(4-Oxocinnolin-1(4H)-yl)sulfonyl]phenyl pivalate], the melting point fell in the range of 116 to 119 °C. The IC50 in series [1] is 19 ± 5 nM. Further, the “Remaining HNE activity” value in series [2] turned out to be 2.2 ± 0.1%. Moreover, the half-life in series [3] was 2.1 h.

By melting point is commonly meant the temperature, or range, at which the solid turns liquid. A word on the IC50: it is the midpoint of a concentration-inhibition curve.

(Values after article PMC7491426 (Frontiers in Chemistry, 2020).)
